Laboratory results taken from patent publication US10022420B2, “Methods of synthesizing γ-AApeptides, γ-AApeptide building blocks, γ-AApeptide libraries, and γ-AApeptide inhibitors of Aβ40 aggregates” (UNIVERSITY OF SOUTH FLORIDA, priority 2013, dated 2018).

Legend:
[1] = biological target: T1, Aβ40 (Homo sapiens, UniProt P05067); assay: Thioflavin T (ThT) assay of Aβ40 aggregation; assay type: biochemical
T1 construct: mouse 6e10 primary antibody which recognizes the first 16 amino acids of Aβ1-40
Method: Aggregation control (100%) is set as the change of fluorescence of 2.5 μM Aβ40 in Tris (pH 7.5) buffer. The concentration of ThT is 5 μM. Excitation: 440 nm; emission: 482 nm. These two sequences were investigated for their capability to inhibit the aggregation of Aβ40 by ThT assay. […] Compounds in different concentrations in Tris buffer Saline (TBS, pH 7.5) containing 10 μM ThT were added into a black 96 well plate corning@3721. Aβ40 monomer was freshly thawed and used to make a stock solution in TBS with a concentration of 5 μM. Equal volume of Aβ solution was added into the 96 well palate (final Aβ concentration was 2.5 μM). Time-dependent fluorescence change was monitored by a Synergy 2 plate reader at an excitation wavelength of 440 nm and emission at 482 nm. After 24 h, the fluorescence change was recorded. 100% aggregation is the fluorescence change of 2.5 μM Aβ40 in TBS buffer containing 5 μM ThT.

[2] = biological target: T2, Aβ40 peptide (Homo sapiens, UniProt P05067); assay: On-bead screening of OBOC γ-AApeptide library against Aβ40 peptide; assay type: binding; details: Aβ40 20 ug/mL, 6e10 antibody, anti-mouse IgG-dylight 549
T2 construct: mouse 6e10 primary antibody which recognizes the first 16 amino acids of Aβ1-40
Method: The γ-AApeptide library was screened to identify ligands that can bind to Aβ. The anti-aggregation efficiency of identified ligands was determined by functional assay afterwards. Thus, beads were incubated with the Aβ40 peptide, followed by the treatment of anti-Aβ antibody 6E10 (FIG. 10). Then, anti-mouse IgG-dylight 549 conjugate was added. Dylight 549 produces strong orange fluorescence, a region in which TentaGel beads have low background fluorescence (see Aquino, C. supra, 4, which is incorporated by reference herein regarding properties of TentaGel beads). The dye is also much less expensive than quantum dots. […]
In order to avoid any possible nonspecific binding, both the Aβ and antibodies solution were made in 1% BSA/TBST blocking buffer. […] The beads were washed with PBST completely and transferred into a 6-well plate to be observed under Zeiss inverted fluorescence microscope 10×43HE filter, and the orange bright beads were picked up for they had suspicious nonspecific binding.
The rest of the beads were pulled together, washed with PBST, and then treated with 1% SDS at 90° C. for ten minutes to remove any bound proteins. […] After washing and equilibrating in TBST overnight, the beads were ready for actual Aβ screening. […]
The beads were collected and washed with 1×PBST three times. […] Washed with water, DMSO, and acetonitrile, beads were then cleaved and analyzed using previous procedure. […]

[3] = test system: N2a neuroblastoma cells; assay: MTT toxicity assay: Aβ42 aggregates on N2a cells; assay type: cell-based; details: final Aβ 1 μM, 24 h
Method: FIG. 16 is a bar graph illustrating detoxification of Aβ42 aggregates by HW-155-1. N2a cells were cultured with 1 μM of pre-aggregated Aβ42 in the absence/presence of HW-155-1 for 24 h.
The effect of HW-155-1 on the toxicity of Aβ aggregates towards N2a neuroblastoma cells was then examined. […] In contrast, pre-incubation of 0.5 equiv. of HW-155-1 with Aβ42 reduces the death of N2a cells to 25%, while the presence of 1 equiv.
In siliconized tubes, Aβ42 peptide of 10 μM (in F-12 medium) were pre-incubated with 0, 0.5 and 1 equiv. HW-155-1 AApeptide, respectively. These solutions were incubated on rotating shaker (Barnstead 400100) at 8 rpm in 37° C. for 24 h. Meanwhile, N2a cells were plated in 96-well plates (10000 cells/well) with triple replications for 24 h. Then pre-aggregated mixtures were added into each well to make the final Aβ concentration at 1 μM. The plate was incubated for another 24 h. Next, 10 μL MTT reagent was added to the cells. The plate was incubated for 4 h at 37° C. After the addition of 100 μL solubilization solution and incubation overnight, OD values were read at 575 nm. The final cell viability was calculated as: Cell viability %=(OD575−OD blank)/(ODctrl−OD blank)×100%.

[4] = biological target: T1, Aβ40; assay: Transmission electron microscopy (TEM) of Aβ40 fibrils; assay type: biochemical; details: HW-155-1 5 μM, 24 h
Method: FIGS. 15A-15D are TEM images illustrating monomeric Aβ40 in the absence (FIG. 15A) and presence (FIG. 15B) of HW-155-1 after 24 h and pre-aggregated Aβ40 in the absence (FIG. 15C) and presence (FIG. 15D) of HW-155-1 after 24 h. Bar=[…]; Aβ40 is 2.5 μM; and HW-155-1 is 5 μM. The ability of HW-155-1 to prevent Aβ aggregation was further confirmed by TEM (FIGS. 15A and 15B). In fact, HW-155-1 can even disassemble pre-formed Aβ fibrils (FIGS. 15C and 15D). In these experiments, the Aβ fibrils were not seen for 24 h after incubating HW-155-1 with Aβ40 monomers (prevention of aggregation) and pre-formed Aβ40 aggregates (disassembling aggregation). Aβ40 preparations were adsorbed onto 200-mesh copper grids for 1 hour (until it is dry), and then stained with 1% uranyl acetate for 20 sec. The excess fluid was removed and the grids were analyzed with FEI Morgagni 268D TEM operated at 60 kV.

T1 sequence (P05067 672-711 limits assumed): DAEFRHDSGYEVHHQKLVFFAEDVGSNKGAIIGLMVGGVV
T2 sequence (P05067 672-711 limits assumed): as above

Structure (SMILES): C=CCOC(=O)N(CC(=O)N[C@@H](Cc1ccccc1)CN(CC(=O)N[C@@H](CCCCN)CN(CC(=O)N[C@@H](CC(C)C)CN(CC(N)=O)C(=O)CC(C)C)C(=O)CC(C)C)C(=O)CCc1ccccc1)C[C@@H](N)CCCCN [HW-155-1]
- inhibition at 1 µM ([1]; 1 μM compound, 2.5 μM Aβ40, first 2 h of incubation (FIG. 14B), read-out: inhibition of Aβ aggregation): ~50%
- potency relative to KLVFF ([1]; ThT assay, Aβ40): at least 100 fold
- on-bead binding to Aβ40 (screening outcome) [2]: hit
- death of N2a cells ([3]; 0.5 equiv. compound pre-incubated with Aβ42, Aβ42 alone kills 30%): 25%
- toxicity of Aβ42 / death of N2a cells ([3]; 1 equiv. compound pre-incubated with Aβ42): almost completely removes the toxicity
- Aβ fibrils by TEM, prevention of aggregation ([4]; Aβ40 monomers 2.5 μM): not seen
- Aβ fibrils by TEM, disassembling aggregation ([4]; pre-formed Aβ40 aggregates 2.5 μM): not seen
